These results are taken from patent US20020114734A1, “Microplate thermal shift assay apparatus for ligand development and multi-variable protein chemistry optimization” (priority 1996, published 2002).

For one assay, the target named is T1, human α-thrombin (Homo sapiens, UniProt P00734).
T1 construct: A stock human α-thrombin solution; purchased Enzyme Research Labs
Briefly: Microplate thermal shift screen of biochemical conditions, thrombin stability. The conditions noted are these: for effect on human α-thrombin stability: 10% glycerol, 10 mM dithiothreitol. As to the method:
The microplate thermal shift assay was used, with four different fluorophores, to simultaneously screen the effects of multiple pH values, sodium chloride concentrations, and reduction-oxidation compounds on human α-thrombin stability. […] Reaction volume was 100 μL.

A further assay deals with D(II) FGF receptor 1. Briefly: Microplate thermal shift screen of biochemical conditions, D(II) FGF receptor 1 stability. On the set-up: species or system human. The conditions noted are these: for effect on D(II) FGF receptor 1 stability: additives in 50 mM MOPS pH 7, 0.1 M NaCl. Here is the method: The microplate thermal shift assay was used to simultaneously screen the effects of multiple biochemical conditions on D(II) FGF receptor 1 stability. The assays were performed by mixing 1 μL of D(II) FGFR1 (from a 500 μM concentrated stock in 50 mM HEPES pH 7.5) with 4 μL of each biochemical condition in wells of a 96-well polycarbonate microtiter plate. Final protein concentration after mixing was 100 μM and final 1,8-ANS concentration was 200 μM. Biochemical conditions were tested as follows: The pH's tested were 5 (Na acetate), 6 (MES), 7 (MOPS), 8 (HEPES), and 9 (CHES), with final buffer concentrations of 50 mM.
The salt concentrations tested were 0.1 or 0.5 M NaCl. Additives were tested in 50 mM MOPS, pH 7, 0.1 M NaCl, at final concentrations of 1 mM (EDTA, dithiothreitol), 10 mM (CaCl2, MgCl2, MgSO4, NiSO4), 50 mM (arginine), 100 mM ((NH4)2SO4, LiSO4, Na2SO4, ZnSO4), 5% w/v (polyethylene glycol 6000), and 10% v/v glycerol.
Thermal denaturation profiles were generated as previously described for thrombin, aFGF, Factor D, and Factor Xa, by incremental heating of the microplate followed by a fluorescence reading after each temperature increase. Data were analyzed by non-linear least squares fitting as described previously.

Assay [1] relates to human urokinase-type plasminogen activator (u-PA). The assay is described as follows: Miniaturized (5 μL) microplate thermal shift assay of urokinase. The format is binding. The conditions noted are these: CMK-u-PA complex, MOPS pH 7, NaCl, 1,8-ANS. An excerpt: Another target molecule analyzed was human urokinase-type plasminogen activator (u-PA). U-PA enzymatically converts plasminogen into the active protease plasmin. U-PA is involved in tissue remodeling, cellular migration and metastases. The gene for u-PA was obtained from ATCC (Rockville, Md.) and modified to appropriately express active enzyme in E. coli. u-PA was cloned, overexpressed in E. coli, and purified using procedures similar to those described by Winkler et al. (Biochemistry 25:4041-4045 (1986)). […] The experiment was performed in the miniaturized format in 5 μL well volume. One μL of concentrated CMK-u-PA (13 g/L, 371.4 μM) was added to 4 μL of 62.5 mM MOPS, pH 7, 125 mM NaCl, and 250 μM 1,8-ANS, in multiple wells of a 96-well polycarbonate V-bottom microtiter plate. A thermal denaturation curve was generated as previously described for thrombin, aFGF, D(II)FGFR1, Factor D, and Factor Xa, by incremental heating of the microplate followed by a fluorescence reading after each temperature increase.

For the next assay, the system named is human urokinase. The assay is described as follows: Microplate thermal shift screen of biochemical conditions, urokinase stability. The conditions noted are these: 0.1 or 0.5 M NaCl; 10% glycerol. Here is the method:
The microplate thermal shift assay was used to simultaneously screen the effects of multiple biochemical conditions on human urokinase stability. This experiment was performed by mixing 1 μL of urokinase (from a […] concentrated stock in 20 mM Tris pH 8) with 4 μL of each biochemical condition in wells of a 96-well polycarbonate microtiter plate. Final protein concentration after mixing was 74 μM and final 1,8-ANS concentration was 200 μM. Biochemical conditions were tested as follows: The pH's tested were 5 (acetate), 6 (MES), 7 (MOPS), 8 (HEPES), and 9 (CHES) with final buffer concentrations of 50 mM. The salt concentrations tested were 0.1 or 0.5 M NaCl. Glycerol was tested at 10% v/v in 50 mM MOPS, pH 7, 0.1 M NaCl.
Thermal denaturation profiles were generated as previously described for thrombin, aFGF, Factor D, D(II) FGFR1, and Factor Xa, by incremental heating of the microplate followed by a fluorescence reading after each temperature increase. Data were analyzed by non-linear least squares fitting as described previously.

In a further assay the target is thrombin (Homo sapiens, UniProt P00734). The conditions noted are these: 5 mM Tris buffer pH 8.0, 0.1% PEG, 25° C.; read-out: Kd of Na+ binding site; cited from earlier work.
Assay [2] concerns the target T2, heparin binding site of basic fibroblast growth factor (bFGF) (Homo sapiens, UniProt P09038).
T2 construct: host or cells: E. coli
Briefly: Microplate thermal shift assay for ligands binding to bFGF. The conditions noted are these: read-out: binding affinity. From the text: The microplate thermal shift assay was used to assess ligands for binding to the heparin binding site of basic fibroblast growth factor (bFGF). The gene for bFGF was purchased from R&D Systems and was cloned and expressed in E. coli as previously described (Thompson, L. D. et al., Biochemistry 33:3831-3840 (1994); Pantoliano, M. W. et al., Biochemistry 33:10229-10248 (1994); Springer, B. A. et al., J. Biol. Chem. 269:26879-26884 (1994)).

Assay [3] concerns the target T3, acidic fibroblast growth factor (aFGF) (Homo sapiens, UniProt P05230).
T3 construct: host or cells: E. coli
Briefly: Microplate thermal shift assay for ligands binding to aFGF, turbidity as signal. An excerpt: The second therapeutic receptor tested in the microplate thermal shift assay was acidic fibroblast growth factor (aFGF), a growth factor that plays a key role in angiogenesis (Folkman, J. et al., J. Biol. Chem. 267:10931-10934 (1992)). A synthetic gene for this protein was purchased from R&D Systems (Minneapolis, Minn.), and was cloned and expressed in E. coli using methods similar to those described for basic fibroblast growth factor (bFGF) (Thompson, L. D. et al., Biochemistry 33:3831-3840 (1994); Pantoliano, M. W. et al., Biochemistry 33:10229-10248 (1994); Springer, B. A. et al., J. Biol. Chem. 269:26879-26884 (1994)). Recombinant aFGF was then purified by heparin-sepharose affinity chromatography as described (Thompson, L. D. et al., Biochemistry 33:3831-3840 (1994)). aFGF is also known to bind heparin/heparan, which is a cofactor for mitogenic activity. […] A microplate thermal assay of these compounds was set up in a way similar to that described above for human α-thrombin. […] The affinity constants covered a fairly broad range of binding affinities, with pentosan PSO4 showing the highest affinity.

In another assay the target is T4, D(II) FGFR1 (Homo sapiens, UniProt P11362).
T4 construct: hexa-histidine (N); made in house
T4 sequence (P11362 158-246 limits assumed): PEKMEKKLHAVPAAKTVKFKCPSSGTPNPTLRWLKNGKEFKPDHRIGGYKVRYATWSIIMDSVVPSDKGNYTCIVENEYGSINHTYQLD
The assay is described as follows: Miniaturized (10 μL) microplate thermal shift assay. The format is binding. As to the method:
Recombinant D(II) FGFR1 was purified from inclusion bodies and purified by affinity chromatography on heparin sepharose. A stock solution of D(II) FGFR1 (15 mg/mL; 1.1 mM) was diluted to 50 μM in assay buffer (50 mM Hepes, pH 7.5, 0.1 M NaCl). The assay volume was 10 μL and the concentration of 1,8-ANS was 250 μM.

Where two headings read alike, the source gives them in different places. Where a SMILES comes first, the peptide text is derived from it. The star is where a group is joined. CH2Cl = ClC*

T3 sequence (P05230 whole entry, species assumed): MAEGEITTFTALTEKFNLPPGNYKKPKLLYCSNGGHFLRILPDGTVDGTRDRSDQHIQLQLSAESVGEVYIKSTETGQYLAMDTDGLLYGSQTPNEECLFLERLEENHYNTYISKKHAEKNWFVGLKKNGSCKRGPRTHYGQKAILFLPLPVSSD
T2 sequence (P09038 134-288, species assumed): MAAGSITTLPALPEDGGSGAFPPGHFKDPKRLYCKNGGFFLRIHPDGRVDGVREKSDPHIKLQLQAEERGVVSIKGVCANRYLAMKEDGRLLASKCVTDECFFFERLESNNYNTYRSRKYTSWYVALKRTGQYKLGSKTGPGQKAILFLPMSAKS

In the case of `O[C@H](CS)[C@H](O)CS` (racemic) [dithiothreitol], the “effect on human α-thrombin stability” value on human α-thrombin is reported as “destabilizing effect”. Further, in the assay on D(II) FGF receptor 1, the “effect on D(II) FGF receptor 1 stability” value was “destabililzed the protein”.

In the case of `N.N.O=S(=O)(O)O` [(NH4)2SO4], the “effect on D(II) FGF receptor 1 stability” value with D(II) FGF receptor 1 was “stabilizing effects”.

`N=C(N)NCCC[C@H](NC(=O)CNC(=O)[C@@H](N)CCC(=O)O)C(=O)CCl` [CMK, glu-gly-arg-chloromethylketone] (H-Glu-Gly-Arg-CH2Cl): the Tm in assay [1] was 81 °C.

Turning to `O=S(=O)([O-])[O-].[Li+].[Li+]` [Li2SO4], the “effect on D(II) FGF receptor 1 stability” value in the assay with D(II) FGF receptor 1 is “stabilizing effects”.

Consider `O=S(=O)([O-])[O-].[Mg+2]` [MgSO4], for which the “effect on D(II) FGF receptor 1 stability” value with D(II) FGF receptor 1 is on record as “stabilized the protein”; with D(II) FGF receptor 1 (listed as Mg2SO4) it was “stabilizing effects”.

Turning to `O=S(=O)([O-])[O-].[Na+].[Na+]` [Na2SO4], the “effect on D(II) FGF receptor 1 stability” value in the assay with D(II) FGF receptor 1 is listed as “stabilizing effects”.

With `[Cl-].[Na+]` [NaCl, sodium chloride], in the assay with human urokinase, the “effect on human urokinase stability” value is recorded as “stabilized the protein”. In addition, the ΔTm result at human α-thrombin (NaCl concentration increased from 0 to 0.5 M) is “about 12 °C”; with D(II) FGF receptor 1 (NaCl concentration increased from 0.1 to 0.5 M), “about 5 °C”. In addition, the Kd at human α-thrombin (near the Tm (53° C.), 50 mM Hepes pH 8.0, zero and 0.10 M NaCl, read-out: NaCl binding (estimated with equation (1))) was around 6000 µM; at thrombin it was 30000 ± 3000 µM.

As for `Cc1ccc(C(=O)Nc2ccc(S(=O)(=O)O)c3cc(S(=O)(=O)O)cc(S(=O)(=O)O)c23)cc1NC(=O)c1cccc(NC(=O)Nc2cccc(C(=O)Nc3cc(C(=O)Nc4ccc(S(=O)(=O)O)c5cc(S(=O)(=O)O)cc(S(=O)(=O)O)c45)ccc3C)c2)c1` [Suramin, suramin], the Kd was 3.5 µM in assay [2]; 3.22 µM in assay [3] (equation (1), estimated ΔHu 60.0 kcal/mole, ΔCpu 0.95 kcal/mole-°K, read-out: Kd at Tm); 0.622 µM in assay [3] (equation (3), ΔHL estimated −10.0 kcal/mole, read-out: Kd at 298° K Observed). Further, in assay [3] (aFGF/ligand, aFGF 0.25 mg/mL, ligand 47-200 μM, turbidity), the Tm is on record as 330.15 ° K. In addition, the ΔTm in assay [3] (relative to aFGF alone (317.15 ° K)) is recorded as 13.0 ° K.

In the case of `O=C(NCCCNC(=O)[C@H](OS(=O)(=O)O)[C@@H](OS(=O)(=O)O)[C@H](O[C@@H]1O[C@H](COS(=O)(=O)O)[C@H](OS(=O)(=O)O)[C@H](OS(=O)(=O)O)[C@H]1OS(=O)(=O)O)[C@@H](COS(=O)(=O)O)OS(=O)(=O)O)[C@H](OS(=O)(=O)O)[C@@H](OS(=O)(=O)O)[C@H](O[C@@H]1O[C@H](COS(=O)(=O)O)[C@H](OS(=O)(=O)O)[C@H](OS(=O)(=O)O)[C@H]1OS(=O)(=O)O)[C@@H](COS(=O)(=O)O)OS(=O)(=O)O` [aprosulate], the “unfolding transition (Tm)” value at D(II) FGFR1 (aprosulate 300 uM) is recorded as “about 320 K”. For the same compound, the “increase of unfolding transition” value at D(II) FGFR1 (aprosulate 300 uM, 50 μM D(II) FGFR1, 10 μL) is recorded as “about 8 K”. On D(II) FGFR1 (estimate, read-out: binding affinity at the Tm), the Kd was around 18 µM.

On to `N=C(N)NCCC[C@H](N)C(=O)O` [arginine], for which the “effect on D(II) FGF receptor 1 stability” value in the assay with D(II) FGF receptor 1 was “stabilized the protein”.

Consider `OCC(O)CO` [glycerol], for which the “effect on human urokinase stability” value in the assay with human urokinase is given as “stabilized the protein”. Moreover, on human α-thrombin, the “effect on human α-thrombin stability” value is on record as “stabilizing effect”. Moreover, in the assay with D(II) FGF receptor 1, the “effect on D(II) FGF receptor 1 stability” value is reported as “stabilized the protein”.
